Measurements: ChEMBL document CHEMBL1770053, “Design of novel and potent cPLA2α inhibitors containing an α-methyl-2-ketothiazole as a metabolically stable serine trap” (Bioorg Med Chem Lett, 2011)
pIC50: −log10 of the molar value.

Legend:
[1] = Inhibition of recombinant cytosolic PLA2alpha assessed as inhibition of cleavage of soluble fluorogenic substrate
[2] = Inhibition of cytosolic PLA2alpha in human differentiated HL60 cells assessed as inhibition of A23187-induced [3H]-arachidonate release; format: cell-based; settings: HL-60
Hepatocyte = experiment: Intrinsic clearance in rat hepatocytes; format: ADME, cell-based, Liver
[3] = Half life in rat plasma at 2 mg/kg, iv; format: ADME, organism-based; set-up: dose 2 mg/kg, route intravenous
[4] = Clearance in rat at 2 mg/kg, iv; format: ADME, organism-based; set-up: dose 2 mg/kg, route intravenous; settings: in vivo
[5] = Volume of distribution at steady state in rat at 2 mg/kg, iv; format: ADME, organism-based; set-up: dose 2 mg/kg, route intravenous; settings: in vivo, read-out: Vdss

pIC50 [1]	pIC50 [2]	CL (Hepatocyte) [µL/min]	half-life [3] [h]	clearance [4] [L/h/kg]	Vd [5] [L/kg]	Structure (SMILES)
7.40	6.64	–	–	–	–	CCCCCCCCCCSc1ccc(OCC(=O)c2nc(C)c(CCCC(=O)O)s2)cc1
< 5.00	–	–	–	–	–	O=C(COc1ccc(SCCCCCc2ccccc2)cc1)c1ncc[nH]1
< 5.00	–	–	–	–	–	Cn1ccnc1C(=O)COc1ccc(SCCCCCc2ccccc2)cc1
6.62	5.92	20	–	–	–	Cc1nc(C(=O)COc2ccc(OCCCCCc3ccccc3)cc2)sc1CCCC(=O)O
7.10	5.80	28	–	–	–	O=C(O)c1ccc2nc(C(=O)COc3ccc(SCCCCCc4ccccc4)cc3)sc2c1
7.10	5.82	–	–	–	–	O=C(COc1ccc(SCCCCCc2ccccc2)cc1)COc1ccc(C(=O)O)cc1
6.00	< 5.00	–	–	–	–	O=C(COc1ccc(SCCCCCc2ccccc2)cc1)c1nccs1
6.30	6.30	–	–	–	–	Cc1nc(C(=O)COc2ccc(SCCCCCc3ccccc3)cc2)sc1CCC(=O)O
< 5.00	–	–	–	–	–	Cn1c(C(=O)COc2ccc(SCCCCCc3ccccc3)cc2)nc2ccccc21
7.10	6.30	–	0.2	4.26	0.4	Cc1nc(C(=O)COc2ccc(SCCCCCc3ccccc3)cc2)sc1CCCC(=O)O
< 6.00	–	–	–	–	–	Cc1nc(C(=O)[C@H](C)Oc2ccc(SCCCCCc3ccccc3)cc2)sc1CCCC(=O)O
5.36	5.25	–	–	–	–	Cc1nc(C(=O)C(Oc2ccc(SCCCCCc3ccccc3)cc2)C(C)C)sc1CCCC(=O)O (stereo unspecified)
5.37	5.52	–	–	–	–	Cc1nc(C(=O)COc2ccc(SCCCCCc3ccccc3)cc2)sc1/C=C/C(=O)O
6.70	6.15	–	–	–	–	Cc1nc(C(=O)C(C)Oc2ccc(SCCCCCc3ccccc3)cc2)sc1CCCC(=O)O (stereo unspecified)
6.15	5.70	10	1.25	0.63	0.35	Cc1nc(C(=O)C(C)Oc2ccc(OCCCCCc3ccccc3)cc2)sc1CCCC(=O)O (stereo unspecified)
6.85	5.44	35	< 0.2	> 12	–	O=C(O)c1ccc2oc(C(=O)COc3ccc(SCCCCCc4ccccc4)cc3)nc2c1
5.10	–	–	–	–	–	CCC(Oc1ccc(SCc2ccc(Cl)cc2)cc1)C(=O)c1nc(C)c(CCCC(=O)O)s1 (stereo unspecified)
5.52	5.70	–	–	–	–	Cc1nc(C(=O)COc2ccc(SCc3ccccc3)cc2)sc1CCCC(=O)O
6.55	5.89	31	–	–	–	Cc1nc(C(=O)COc2ccc(SCCCCCc3ccccc3)cc2)sc1CCO
< 5.00	< 5.00	–	–	–	–	O=C(O)COc1ccc2nc(C(=O)COc3ccc(SCCCCCc4ccccc4)cc3)[nH]c2c1
6.70	–	8	–	–	–	Cc1nc(C(=O)[C@@H](C)Oc2ccc(SCCCCCc3ccccc3)cc2)sc1CCCC(=O)O
5.44	5.49	–	–	–	–	Cc1nc(C(=O)C(Oc2ccc(SCCCCCc3ccccc3)cc2)c2ccccc2)sc1CCCC(=O)O (stereo unspecified)
6.00	–	–	–	–	–	O=C(COc1ccc(SCCCCCc2ccccc2)cc1)c1nc2ccccc2s1
5.17	< 5.00	–	–	–	–	Cc1nc(C(=O)C(C)(C)Oc2ccc(SCCCCCc3ccccc3)cc2)sc1CCCC(=O)O
5.57	5.43	–	–	–	–	O=C(O)c1ccc2nc(C(=O)COc3ccc(SCCCCCc4ccccc4)cc3)[nH]c2c1
5.70	5.22	–	–	–	–	O=C(O)CCCc1csc(C(=O)COc2ccc(OCCCCCc3ccccc3)cc2)n1
6.52	6.70	41	–	–	–	CCCCCCCCCCS(=O)(=O)c1ccc(OCC(=O)c2nc(C)c(CCCC(=O)O)s2)cc1
< 5.00	–	–	–	–	–	COc1ccc2nc(C(=O)COc3ccc(SCCCCCc4ccccc4)cc3)sc2c1
6.52	5.96	11	–	–	–	Cc1nc(C(=O)COc2ccc(SCCCCCc3ccccc3)cc2)sc1C(=O)O
5.82	5.82	–	1.15	0.63	0.55	Cc1nc(C(=O)C(C)Oc2ccc(SCc3ccc(Cl)cc3)cc2)sc1CCCC(=O)O (stereo unspecified)
